For one compound, EC50 results are on record in patent US7834019B2, “Substituted pyrazolo[3,4-d]pyrimidinone derivatives” (Banyu Pharmaceutical Co., Ltd., priority 2006, dated 2010).

Assay [1] has as its system Human colon cancer cells (WiDr). The assay can be described thus: Checkpoint escape effect in WiDr cells + gemcitabine (phosphorylated histone H3-positive cells). It is filed as cell-based. The conditions noted are these: gemcitabine 100 nM for 24 hours, then test compound with nocodazole for 8 hours. From the text:
Pharmaceutical Text 3 (Method of Determining Drug Potency in Cells (Checkpoint-Removing Effect))
Fetal bovine serum (FBS) was obtained from Morgate; DMEM was from Invitrogen; gemcitabine was from Nippon Eli Lilly; nocodazole and 4′,6-diamidino-2-phenylindole were from Sigma; rabbit anti-phosphorylated histone H3 antibody was from Upstate; and fluorescence-labeled (Alexa Fluor 488) anti-rabbit IgG antibody was from Molecular Probe.
Human colon cancer cells (WiDr) were obtained from American Type Culture Collection (ATCC).
The cells were suspended in DMEM containing 10% FBS, and the cell suspension was applied to a poly-D-lysine-coated 96-well plastic plate (bought from Becton Dickinson) in an amount of 2000 cells/100 μL/well, in which the cells were incubated overnight in 5% CO2-95% air at 37° C. […] Next, this was washed with PBS, and a solution containing 4′,6-diamidino-2-phenylindole that had been diluted with 1% BSA/PBS to have a concentration 10 μg/mL and a fluorescence-labeled (Alexa Fluor 488) anti-rabbit IgG antibody that had been diluted 250-fold was added to it in an amount 50 μL/well, and reacted in a dark place at room temperature for 60 minutes. Finally, this was washed with PBS, and its fluorescence intensity was determined to calculate the ratio of the phosphorylated histone H3-positive cells (cells that had been in a cell division cycle through removal of checkpoint). […]

Assay [2] relates to Cdc2 (Cdk1) tyrosine 15-phosphorylation. The assay is described as follows: Cdc2 (Cdk1) tyrosine 15-phosphorylation-inhibitory effect in WiDr cells + gemcitabine (ELISA). The conditions noted are these: Homo sapiens, gemcitabine 100 nM for 24 hours, then test compound with nocodazole for 8 hours, read-out: Cdc2-Y15 Phosphorylation-Inhibitory Effect (WiDr, + gemcitabine) (EC50). It is filed as cell-based. From the text:
Pharmaceutical Text 2 (Method of Determining Drug Potency in Cells (Cdc2 (Cdk1) Tyrosine 15-Phosphorylation-Inhibitory Effect))
Fetal bovine serum (FBS) was obtained from Morgate; media RPMI1640 and DMEM were from Invitrogen; camptothecin was from Sigma; gemcitabine was from Nippon Eli Lilly; nocodazole and protease inhibitor cocktail were from Sigma; rabbit anti-Cdc2 antibody and mouse anti-Cdc2 antibody were from Santa Cruz Biotechnology; rabbit anti-tyrosine 15-phosphorylated Cdc2 antibody and horseradish peroxidase-labeled anti-mouse IgG antibody were from Cell Signaling Technology; sure blue reserve TMB peroxidase substrate was from Kirkegaard and Perry Laboratories. […]
In the method of using WiDr cells, the cells were suspended in DMEM containing 10% FBS, and the cell suspension was applied to a 96-well Nunclondelta-processed plastic plate in an amount of 2000 cells/100 μL/well, in which the cells were incubated overnight in 5% CO2-95% air at 37° C. […] Cdc2 was determined through ELISA as follows: A rabbit anti-Cdc2 antibody solution, which had been diluted 200-fold with 50 mM carbonate-bicarbonate buffer (pH 9.6), was applied to a 96-well maxisorp plastic plate in an amount of 50 μL/well, and statically kept overnight at 4° C. so as to fix the antibody on the plate. […]

Each structure is given as a SMILES string.

With `C=CCn1c(=O)c2cnc(Nc3ccc(N4CCN(C)CC4)cc3)nc2n1-c1cccc(C(C)(C)O)n1` [Example 53, 2-allyl-1-[6-(1-hydroxy-1-methylethyl)pyridin-2-yl]-6-{[4-(4-methylpiperazin-1-yl)phenyl]amino}-1,2-dihydro-3H-pyrazolo[3,4-d]pyrimidin-3-one], the figures for the concentration for a half-maximal effect (EC50) in assay [1] and in assay [2] were 210 nM and 119 nM, respectively.
